The subject of assay [1] is Giberella fujikuroi. Briefly: Plate medium fungicidal assay, rice bakanae disease G.f (Experimental Example 5). It is filed as cell-based. On the procedure: (§1) In this Experimental Example, the fungicidal effects of the inventive compounds on various phytopathogenic fungi for plants and hazardous microorganism for industrial materials were examined by the methods described below. Each inventive compound was dissolved in 2 ml of dimethyl sulfoxide. 0.6 ml of this solution was added to 60 nil of a PDA medium (potato dextrose agar medium) at about 60 degrees C., which was mixed thoroughly in a 100-ml conical flask, and poured into a dish, where it was solidified, thereby obtaining a plate medium containing the inventive compound at 50 mg/L and 5 mg/L. On the other hand, a subject microorganism previously cultured on a plate medium was cut out using a cork borer whose diameter was 4 mm, and inoculated to the test compound-containing plate medium described above. […] The growth degree of the microorganism on the test compound-containing plate medium thus observed was compared with the growth degree of the microorganism in the untreated group, and % mycelial growth inhibition was calculated by the following equation. R=100(dc−dt)/dc wherein R=% mycelial extension inhibition, dc=flora diameter in untreated plate, dt=flora diameter in treated plate. The results obtained as described above were evaluated as one of the 5 grades according to the following criteria. […] Rice bakanae disease (Giberella fujikuroi) G.f

In assay [2] the test system is Rhynchosporium secalis. Description: Plate medium fungicidal assay, barley leaf blotch R.sec (Experimental Example 5). It is filed as cell-based. The following applies: Rhynchosporium secalis. Here is the method: as §1, with “Barley leaf blotch (Rhynchosporium secalis) R.sec” for “Rice bakanae disease (Giberella fujikuroi) G.f”
Assay [3] deals with Botritis cinerea. Description: Plate medium fungicidal assay, gray mold B.c (Experimental Example 5). It is filed as cell-based. On the procedure: as §1, with “Gray mold (Botritis cinerea) B.c” for “Rice bakanae disease (Giberella fujikuroi) G.f”
The test system of assay [4] is Alternaria alternata. Briefly: Plate medium fungicidal assay, Alternaria blotch A.m (Experimental Example 5). It is filed as cell-based. The following applies: Alternaria alternata. Here is the method: as §1, with “Alternaria blotch (Alternaria alternata) A.m” for “Rice bakanae disease (Giberella fujikuroi) G.f”
The subject of assay [5] is Puccinia recondita. Briefly: Efficacy test against wheat brown rust, 100 mg/L and 10 mg/L (Experimental Example 2). It counts as in vivo. The following applies: nine to 14 days after inoculation; for efficacy compared with compound (1): 10 mg/L sprayed at 1,000 L/ha; for pest or weed control at 100 µg/mL: Puccinia recondita, 336 h, 100 mg/L sprayed at 1,000 L/ha, read-out: Protective value. Here is the method: Onto a wheat plant (variety: NORIN No. 61) grown to the two-leaf phase using a square plastic pot (6 cm×6 cm), a wettable formulation such as Formulation Example 1 which was diluted and suspended in water at a certain concentration (100 mg/L and 10 mg/L) was sprayed at a rate of 1,000 L/ha. The sprayed leaves were air-dried, and inoculated with spore suspension of Puccinia recondita (adjusted at 200 spores/vision, […] was added at 60 ppm) by spraying, and kept at 25 degrees C. and a high humidity for 48 hours. Thereafter, the plant was kept in a greenhouse. Nine to 14 days after inoculation, the wheat brown rust lesion degree was investigated, and the protective value was calculated by the following equation. Protective value (%)=(1-lesion degree in sprayed plot/lesion degree in unsprayed plot)×100

Setting [6] is: plate medium containing compound at 5 mg/L, read-out: Growth inhibition grade, G.f.
The mark [7] stands for this setting: plate medium containing compound at 50 mg/L, read-out: Growth inhibition grade, G.f.
Setting [8] is: plate medium, 5 mg/L, read-out: growth inhibition grade G.f.
Where [9] appears, read: plate medium, 50 mg/L, read-out: growth inhibition grade G.f.
Where [10] appears, read: plate medium containing compound at 5 mg/L, read-out: Growth inhibition grade, R.sec.
Setting [11] is: plate medium containing compound at 50 mg/L, read-out: Growth inhibition grade, R.sec.
Setting [12] is: plate medium, 5 mg/L, read-out: growth inhibition grade R.sec.
Setting [13] is: plate medium, 50 mg/L, read-out: growth inhibition grade R.sec.
[14] abbreviates: plate medium containing compound at 5 mg/L, read-out: Growth inhibition grade, B.c.
[15] abbreviates: plate medium containing compound at 50 mg/L, read-out: Growth inhibition grade, B.c.
Setting [16] is: plate medium, 5 mg/L, read-out: growth inhibition grade B.c.
Setting [17] is: plate medium, 50 mg/L, read-out: growth inhibition grade B.c.
Where [18] appears, read: plate medium containing compound at 5 mg/L, read-out: Growth inhibition grade, A.m.
The mark [19] stands for this setting: plate medium containing compound at 50 mg/L, read-out: Growth inhibition grade, A.m.
Where [20] appears, read: plate medium, 5 mg/L, read-out: growth inhibition grade A.m.
Setting [21] is: plate medium, 50 mg/L, read-out: growth inhibition grade A.m.

Like-named read-outs stand apart in the source and are kept apart here. Bounds are passed on as bounds.

Usually inhibition stands for how much of the control response was suppressed. In the case of `C[C@]1(CCl)CC[C@@H](Cc2ccc(Cl)cc2)[C@]1(O)Cn1cncn1` (racemic) [Compound I-1, (1RS,2SR,5SR)-5-(4-chlorobenzyl)-2-chloromethyl-2-methyl-1-(1H-1,2,4-triazol-1-ylmethyl)cyclopentanol], the inhibition at 5 µg/mL in assay [1] (setting [6]), in assay [1] (setting [8]), in assay [2] (setting [10]), in assay [2] (setting [12]), in assay [3] (setting [14]) and in assay [3] (setting [16]) was greater than 80% throughout. In addition, the inhibition at 5 µg/mL in assay [4] (setting [18]) and in assay [4] (setting [20]) was greater than 80% throughout. The inhibition at 50 µg/mL in assay [1] (setting [7]), in assay [1] (setting [9]), in assay [2] (setting [11]), in assay [2] (setting [13]), in assay [3] (setting [15]) and in assay [3] (setting [17]) was greater than 80% each time. Besides, the inhibition at 50 µg/mL in assay [4] (setting [19]) and in assay [4] (setting [21]) was greater than 80% in each case. In assay [5], the “efficacy compared with compound (1)” value is given as “higher efficacy than that of compound (1)”. In addition, in assay [5], the pest or weed control at 100 µg/mL was no less than 90%.

Consider `CC(Cl)=C[C@@]1(C)CC[C@@H](Cc2ccc(Cl)cc2)[C@]1(O)Cn1cncn1` (racemic) [Compound I-15, (1RS,2RS,5SR)-5-(4-chlorobenzyl)-2-(2-chloropropenyl)-2-methyl-1-(1H-1,2,4-triazol-1-ylmethyl)cyclopentanol], for which the inhibition at 5 µg/mL in assay [1] (setting [6]), in assay [2] (setting [10]), in assay [3] (setting [14]) and in assay [4] (setting [18]) was greater than 80% throughout. Besides, the inhibition at 50 µg/mL in assay [1] (setting [7]), in assay [2] (setting [11]), in assay [3] (setting [15]) and in assay [4] (setting [19]) was greater than 80% in each case. Besides, in assay [5], the “efficacy compared with compound (1)” value was “higher efficacy than that of compound (1)”. In addition, the pest or weed control at 100 µg/mL in assay [5] was no less than 90%.

On to `C[C@]1(CBr)CC[C@@H](Cc2ccc(Cl)cc2)[C@]1(O)Cn1cncn1` (racemic) [Compound I-25, (1RS,2SR,5SR)-2-bromomethyl-5-(4-chlorobenzyl)-2-methyl-1-(1H-1,2,4-triazol-1-ylmethyl)cyclopentanol], for which the inhibition at 5 µg/mL in assay [1] (setting [6]) is greater than 80%; in assay [2] (setting [10]), greater than 80%; in assay [3] (setting [14]), greater than 80%; in assay [4] (setting [18]) it was 60 to 80%. For the same molecule, the inhibition at 50 µg/mL in assay [1] (setting [7]), in assay [2] (setting [11]), in assay [3] (setting [15]) and in assay [4] (setting [19]) was greater than 80% throughout. Further, in assay [5], the “efficacy compared with compound (1)” value is “higher efficacy than that of compound (1)”. Further, the pest or weed control at 100 µg/mL in assay [5] was no less than 90%.

`CC[C@]1(CCl)CC[C@@H](Cc2ccc(Cl)cc2)[C@]1(O)Cn1cncn1` (racemic) [Compound I-36, (1RS,2SR,5SR)-5-(4-chlorobenzyl)-2-chloromethyl-2-ethyl-1-(1H-1,2,4-triazol-1-ylmethyl)cyclopentanol]: the inhibition at 5 µg/mL in assay [1] (setting [6]) is greater than 80%; in assay [2] (setting [10]), greater than 80%; in assay [3] (setting [14]), 60 to 80%; in assay [4] (setting [18]) it was greater than 80%. The inhibition at 50 µg/mL in assay [1] (setting [7]), in assay [2] (setting [11]), in assay [3] (setting [15]) and in assay [4] (setting [19]) was greater than 80% in each case. Also, the “efficacy compared with compound (1)” value in assay [5] is reported as “higher efficacy than that of compound (1)”. Also, the pest or weed control at 100 µg/mL in assay [5] is no less than 90%.

Consider `O[C@]1(Cn2cncn2)[C@H](Cc2ccc(Cl)cc2)CC[C@@H]1C(F)(F)F` (racemic) [Compound I-65, (1RS,2SR,5SR)-5-(4-chlorobenzyl)-2-trifluoromethyl-1-(1H-1,2,4-triazol-1-ylmethyl)cyclopentanol], for which the inhibition at 5 µg/mL was in the range of 60 to 80% in assay [1] (setting [6]), 40 to 60% in assay [2] (setting [10]), 60 to 80% in assay [3] (setting [14]) and 40 to 60% in assay [4] (setting [18]). Further, the inhibition at 50 µg/mL in assay [1] (setting [7]), in assay [2] (setting [11]), in assay [3] (setting [15]) and in assay [4] (setting [19]) was greater than 80% each time. In addition, the pest or weed control at 100 µg/mL in assay [5] is no less than 90%.

Consider `C[C@]1(CCl)CC[C@@H](Cc2ccccc2)[C@]1(O)Cn1cncn1` (racemic) [Compound I-73, (1RS,2SR,5SR)-2-chloromethyl-5-benzyl-2-methyl-1-(1H-1,2,4-triazol-1-ylmethyl)cyclopentanol], for which the inhibition at 5 µg/mL in assay [1] (setting [6]), in assay [1] (setting [8]), in assay [2] (setting [10]), in assay [2] (setting [12]), in assay [3] (setting [14]) and in assay [3] (setting [16]) was greater than 80% throughout. Further, the inhibition at 5 µg/mL in assay [4] (setting [18]) and in assay [4] (setting [20]) was greater than 80% each time. For the same molecule, the inhibition at 50 µg/mL in assay [1] (setting [7]), in assay [1] (setting [9]), in assay [2] (setting [11]), in assay [2] (setting [13]), in assay [3] (setting [15]) and in assay [3] (setting [17]) was greater than 80% throughout. The inhibition at 50 µg/mL in assay [4] (setting [19]) and in assay [4] (setting [21]) was greater than 80% in each case. Further, the “efficacy compared with compound (1)” value in assay [5] is reported as “higher efficacy than that of compound (1)”. In addition, the pest or weed control at 100 µg/mL in assay [5] was no less than 90%.

(Values after patent US9145351B2, “Azole derivatives, methods for producing the same, intermediate thereof, agro-horticultural agents” (KUREHA CORPORATION, priority 2009, dated 2015).)
